Counter-ions that a name gives are not always drawn.
Tests used:
Assay type in all cases: in vivo
[1] = test system: CYPDI (Cyperus difformis L., smallflower umbrella sedge); assay: Example I postemergence foliar-applied mixtures, direct seeded rice weeds, greenhouse: CYPDI
Protocol: Seeds or nutlets of the desired test plant species were planted in a soil matrix prepared by mixing a loam or sandy loam soil (e.g., 28.6 percent silt, 18.8 percent clay, and 52.6 percent sand, with a pH of about 5.8 and an organic matter content of about 1.8 percent) and calcareous grit in an 80 to 20 ratio. The soil matrix was contained in plastic pots with a volume of 1 quart and a surface area of 83.6 square centimeters (cm^2). […] The plants were grown for 8-22 days in a greenhouse with an approximate 14 hr photoperiod which was maintained at about 29° C. during the day and 26° C. during the night. Nutrients (Peters Excel® 15-5-15 5-Ca 2-Mg and iron chelate) were applied in the irrigation solution as needed and water was added on a regular basis. Supplemental lighting was provided with overhead metal halide 1000-Watt lamps as necessary. The plants were employed for testing when they reached the first through fourth true leaf stage.
(§1) Treatments consisted of the acid or esters of 4-amino-3-chloro-5-fluoro-6-(4-chloro-2-fluoro-3-methoxy-phenyl)pyridine-2-carboxylic acid (Compound A), each formulated as an SC (suspension concentrate), and various herbicidal components alone and in combination. Forms of compound A were applied on an acid equivalent basis.
(§2) For treatments comprised of formulated compounds, measured amounts of compounds were placed individually in 25 mL glass vials and diluted in a volume of 1.25% (v/v) Agri-Dex® crop oil concentrated to obtain 12× stock solutions. […] Application solutions were prepared by adding an appropriate amount of each stock solution (e.g., 1 mL) and diluted to the appropriate final concentrations with the addition of 10 mL of an aqueous mixture of 1.25% (v/v) crop oil concentrate so that the final spray solutions contained 1.25+/−0.05% (v/v) crop oil concentrate.
All stock solutions and applications solutions were visually inspected for compound compatibility prior to application. Spray solutions were applied to the plant material with an overhead Mandel track sprayer equipped with a 8002E nozzles calibrated to deliver 187 L/ha over an application area of 0.503 m^2 at a spray height of 18 to 20 inches (46 to 50 cm) above average plant canopy height. Control plants were sprayed in the same manner with the solvent blank.
The treated plants and control plants were placed in a greenhouse as described above and watered by sub-irrigation to prevent wash-off of the test compounds. After approximately 3 weeks, the condition of the test plants as compared with that of the untreated plants was determined visually and scored on a scale of 0 to 100 percent where 0 corresponds to no injury or growth inhibition and 100 corresponds to complete kill. […]

[2] = test system: IPOHE (Ipomoea hederacea Jacq., morning glory, ivyleaf); assay: Example IV postemergence foliar-applied mixtures, general weed control, greenhouse: IPOHE
Protocol: (§3) The treated plants and control plants were placed in a greenhouse as described above and watered by sub-irrigation to prevent wash-off of the test compounds. After approximately 3 weeks, the condition of the test plants as compared with that of the untreated plants was determined visually and scored on a scale of 0 to 100 percent where 0 corresponds to no injury or growth inhibition and 100 corresponds to complete kill.
(§4) Colby's equation was used to determine the herbicidal effects expected from the mixtures (Colby, S. R. 1967. Calculation of the synergistic and antagonistic response of herbicide combinations. Weeds 15:20-22.) .
The following equation was used to calculate the expected activity of mixtures containing two active ingredients, A and B:
A=observed efficacy of active ingredient A at the same concentration as used in the mixture.
B=observed efficacy of active ingredient B at the same concentration as used in the mixture.

[3] = test system: CYPES (Cyperus esculentus L., yellow nutsedge); assay: Example IV postemergence foliar-applied mixtures, general weed control, greenhouse: CYPES
Protocol: (§5) Seeds or nutlets of the desired test plant species were planted in Sun Gro Metro-Mix® 360 planting mixture, which typically has a pH of 6.0 to 6.8 and an organic matter content of about 30 percent, in plastic pots with a surface area of 84.6 square centimeters (cm^2). […] The plants were grown for 7-31 days (d) in a greenhouse with an approximate 15 hour (h) photoperiod which was maintained at about 23-29° C. during the day and 22-28° C. during the night. Nutrients (Peters Excel® 15-5-15 5-Ca 2-Mg) and water were added on a regular basis and supplemental lighting was provided with overhead metal halide 1000-Watt lamps as necessary. The plants were employed for testing when they reached the first, second, or third true leaf stage.
as §1, with “the benzyl ester” for “esters”, “SC,” for “SC (suspension concentrate),”
(§6) Other herbicidal components were applied on an acid equivalent or active ingredient basis and included the 5-enolpyruvylshikimate-3-phosphate synthase (EPSPS)-inhibiting herbicide, glyphosate dimethylamine salt, formulated as Durango DMA® and the glutamine synthase (GS)-inhibiting herbicide, glufosinate ammonium, formulated as Ignite® 280.
as §2, with “(v/v) Agri-dex” for “(v/v) Agri-Dex®”, “solution (typically” for “solution (e.g.,”, “(v/v) Agri-dex” for “(v/v)”, “contained 1.25%” for “contained 1.25+/−0.05%”
(§7) All stock solutions and applications solutions were visually inspected for compound compatibility prior to application. Compound requirements are based upon a 12 mL application volume at a rate of 187 liters per hectare (L/ha). Formulated compounds were applied to the plant material with an overhead Mandel track sprayer equipped with 8002E nozzles calibrated to deliver 187 L/ha over an application area of 0.503 square meters (m^2) at a spray height of 18 to 20 inches (46 to 50 cm) above the average plant canopy height. Control plants were sprayed in the same manner with the solvent blank.
as §3, §4

[4] = test system: DIGSA (Digitaria sanguinalis (L.) Scop., large crabgrass); assay: Example IV postemergence foliar-applied mixtures, general weed control, greenhouse: DIGSA
Protocol: as §5
as §1, with “the benzyl ester” for “esters”, “SC,” for “SC (suspension concentrate),”
as §6
as §2, with “(v/v) Agri-dex” for “(v/v) Agri-Dex®”, “solution (typically” for “solution (e.g.,”, “(v/v) Agri-dex” for “(v/v)”, “contained 1.25%” for “contained 1.25+/−0.05%”
as §7, §3, §4

[5] = Compound A Benzyl Ester 2 gae/ha alone, 18 DAA
[6] = Compound A Benzyl Ester 4 gae/ha alone, 18 DAA
[7] = Compound A Benzyl Ester 8 gae/ha alone, 18 DAA
[8] = Compound A Benzyl Ester alone, 2 gae/ha
[9] = Glufosinate ammonium salt 225 gai/ha alone, 18 DAA

## COc1c(Cl)ccc(-c2nc(C(=O)O)c(Cl)c(N)c2F)c1F [Compound A Acid, 4-amino-3-chloro-6-(4-chloro-2-fluoro-3-methoxyphenyl)-5-fluoropyridine-2-carboxylic acid]
[1]; Compound A Acid alone, 4.38 gae/ha
  Visual Weed Control (%) - 21 DAA CYPDI Obs: 50%
[1]; Compound A Acid alone, 8.75 gae/ha
  Visual Weed Control (%) - 21 DAA CYPDI Obs: 85%

## COc1c(Cl)ccc(-c2nc(C(=O)OCc3ccccc3)c(Cl)c(N)c2F)c1F [Compound A Benzyl Ester]
[2]; Compound A Benzyl Ester 2 gae/ha alone
  Visual Weed Control (%) - 18 DAA IPOHE Obs: 15%
[2]; Compound A Benzyl Ester 4 gae/ha alone
  Visual Weed Control (%) - 18 DAA IPOHE Obs: 25%
[2]; Compound A Benzyl Ester 8 gae/ha alone
  Visual Weed Control (%) - 18 DAA IPOHE Obs: 25%
[2]; Compound A Benzyl Ester 16 gae/ha alone
  Visual Weed Control (%) - 18 DAA IPOHE Obs: 35%
[2]; Compound A Benzyl Ester 32 gae/ha alone
  Visual Weed Control (%) - 18 DAA IPOHE Obs: 45%
[3]; [5]
  Visual Weed Control (%) - 18 DAA CYPES Obs: 40%
[3]; [6]
  Visual Weed Control (%) - 18 DAA CYPES Obs: 75%
[3]; [7]
  Visual Weed Control (%) - 18 DAA CYPES Obs: 80%
[3]; [8]
  Visual Weed Control (%) - 18 DAA CYPES Obs: 40%
[4]; [5]
  Visual Weed Control (%) - 18 DAA DIGSA Obs: 0%
[4]; [6]
  Visual Weed Control (%) - 18 DAA DIGSA Obs: 0%
[4]; [7]
  Visual Weed Control (%) - 18 DAA DIGSA Obs: 0%
[4]; Compound A Benzyl Ester 16 gae/ha alone, 18 DAA
  Visual Weed Control (%) - 18 DAA DIGSA Obs: 0%
[4]; Compound A Benzyl Ester 32 gae/ha alone, 18 DAA
  Visual Weed Control (%) - 18 DAA DIGSA Obs: 30%
[4]; [8]
  Visual Weed Control (%) - 18 DAA DIGSA Obs: 0%
[4]; Compound A Benzyl Ester alone, 4 gae/ha
  Visual Weed Control (%) - 18 DAA DIGSA Obs: 0%
[4]; Compound A Benzyl Ester alone, 8 gae/ha
  Visual Weed Control (%) - 18 DAA DIGSA Obs: 0%
[4]; Compound A Benzyl Ester alone, 16 gae/ha
  Visual Weed Control (%) - 18 DAA DIGSA Obs: 0%
[4]; Compound A Benzyl Ester alone, 32 gae/ha
  Visual Weed Control (%) - 18 DAA DIGSA Obs: 30%

## CP(=O)(O)CCC(N)C(=O)O (stereo not drawn) [Glufosinate ammonium salt, 2-amino-4-(hydroxymethylphosphinyl)butanoic acid monoammonium salt, reference compound]
[2]; Glufosinate ammonium salt 112.5 gai/ha alone
  Visual Weed Control (%) - 18 DAA IPOHE Obs: 10%
[2]; Glufosinate ammonium salt 225 gai/ha alone
  Visual Weed Control (%) - 18 DAA IPOHE Obs: 20%
[2]; Glufosinate ammonium salt 450 gai/ha alone
  Visual Weed Control (%) - 18 DAA IPOHE Obs: 50%
[3]; Glufosinate ammonium salt 112.5 gai/ha alone, 18 DAA
  Visual Weed Control (%) - 18 DAA CYPES Obs: 0%
[3]; [9]
  Visual Weed Control (%) - 18 DAA CYPES Obs: 0%
[3]; Glufosinate ammonium salt 450 gai/ha alone, 18 DAA
  Visual Weed Control (%) - 18 DAA CYPES Obs: 0%
[4]; [9]
  Visual Weed Control (%) - 18 DAA DIGSA Obs: 25%
[1]; glufosinate ammonium alone, 135.5 gae/ha
  Visual Weed Control (%) - 21 DAA CYPDI Obs: 0%
[1]; glufosinate ammonium alone, 271 gae/ha
  Visual Weed Control (%) - 21 DAA CYPDI Obs: 0%
